Several values for one entry are separate records, joined by “and”; a condition that tells them apart may be missing. Equal entries are not always repeated. Where two headings read alike, the source gives them in different places.
Key:
[1] = target: T1, A. terreus ODC (Aspergillus terreus, UniProt A0ACN5CWH9); test: Effect of inhibitors on activity of purified A. terreus ODC (residual activity, standard TNBS assay); type: biochemical; details: for activity at 5 µg/mL / activity at 40 µg/mL / activity at 200 µg/mL / activity at 400 µg/mL: read-out: Relative Activity (%); for Relative Activity (%): enzyme preincubated 2 h, then L-ornithine, residual ODC activity; for IC50: 2 h preincubation
Description: The amino acid identity of the active sites implicated in the catalysis of A. terreus ODC has been scrutinized by the response to suicide inhibitors, namely propargylgycine (PPG), guanidine thiocyanate, hydroxylamine, iodoacetamide, DTNB, MBTH and curcumin. […] Consistently, curcumin has been extensively reported a strong inhibitor to the activity of tumor cells ODC, modulating the cellular polyamine metabolism. Elevated polyamine synthesis was recognized as profound compounds for survival and rapid proliferation of tumor cells, thus, targeting the ODC, rate limiting enzyme of polyamine synthesis, has been considered as powerful chemopreventive therapy for tumor cells. […] The enzyme irreversible inactivation by carbonyl reagents such as PPG, ensures the PLP dependence of these enzymes.
(§1) The activity of ODC was determined based on the amount of released putrescine using 2,4,6-tri-nitrobenzene sulfonic acid (TNBS) reagent. […] The reaction was stopped by 10% TCA then neutralized by adding adequate amount of 2N NaOH. 1-Pentanol (2 mL) was added was added to the reaction mixture which was subsequently vortexed for 1 min and centrifuged at 5000 rpm for 5 min. The upper layer was transferred into a new tube, combined with an equal volume of 0.1 M sodium borate (pH 8.0). After vigorously mixing, 500 µL of TNBS (10 mM) reagent was added, subjected to 1 min vortex before adding 2 mL DMSO, and centrifuging at 6000 rpm for 5 min and left to separate into two layers. The upper layer containing TNP-putrescine-TNP was collected by micropipette and the absorbance at λ = 420 nm will reveal putrescine concentration based on a parallel measurement of authentic putrescine at the same conditions. The enzyme protein concentration was measured by Folinʹs reagent, comparing to a known concentration of bovine serum albumin.
Active site prediction using amino acids analogues has been recognized as one of the mechanisms for interrogation of enzymatic identity. The influence of various inhibitors namely 5,5′-dithiobis-2-nitrobenzoic acid, 3-methyl-2-benzothiazolinone-hydrazone, guanidine thiocyanate, iodoacetamide, hydroxylamine, propargylglycine and curcumin on the activity of purified ODC was estimated. The enzyme was incubated with different inhibitor concentrations (5, 40, 200, 400 µg/mL) for 2 h at 30 °C, then amended with the substrate, and the residual activity of the enzyme were determined by the standard assay. The inhibitory kinetic parameters were measured according to El-Sayed et al.

[2] = target: T1, A. terreus ODC; test: Substrate specificity of purified ODC, Nessler's assay (ammonia); type: biochemical; details: for Nessler's Assay Activity: amino acid as substrate; for Nessler's Assay Relative Activity: normalized to L-ornithine as standard substrate
Experimental: (§2) The specificity of purified A. terreus ODC towards various amino acids as substrates has been evaluated based on the putative enzymatic byproducts such as ammonia, citrulline and putrescine (see Materials and Methods). […] The putative deaminating, deiminating and decarboxylating activity of ODC for each substrate was assessed (Table 3).
(§3) The putative enzymatic byproducts such as ammonia, citrulline and putrescine were determined by Nessler’s reagent, diacetylmonoxime reagent and TNBS [42], respectively, under standard conditions. The kinetic parameters of A. terreus ODC; Michalis-Menten constant (Km), maximum velocity (Vmax), and turnover number (kcat) and catalytic efficiency towards the most hydrolysable amino acids were calculated.

[3] = target: T1, A. terreus ODC; test: Substrate specificity of purified ODC, diacetyl monoxime assay (citrulline / imino groups); type: biochemical; details: for Diacetyl Monoxime Assay Activity: amino acid as substrate
Experimental: as §2, §3

[4] = target: T1, A. terreus ODC; test: Substrate specificity of purified ODC, TNBS assay (putrescine); type: biochemical; details: released putrescine; for TNBS Assay Activity: amino acid as substrate; for TNBS Assay Relative Activity: normalized to L-ornithine
Experimental: as §2, §1, §3

[5] = target: T1, A. terreus ODC; test: Kinetic parameters of A. terreus ODC for substrates; details: substrate of A. terreus ODC
Experimental: as §2, §3

[6] = target: T1, A. terreus ODC; type: biochemical; details: Nessler's, diacetylmonoxime and TNBS assays
Experimental: as §2, §3

[7] = test system: N=C(N)NCCC[C@H](N)C(=O)O; test: purified protein, by the assay type; details: other: substrate of A. terreus ODC
Experimental: (§4) The putative enzymatic byproducts such as ammonia, citrulline and putrescine were determined by Nessler’s reagent [66], diacetylmonoxime reagent [36] and TNBS [42], respectively, under standard conditions. The kinetic parameters of A. terreus ODC; Michalis-Menten constant (Km), maximum velocity (Vmax), and turnover number (kcat) and catalytic efficiency towards the most hydrolysable amino acids were calculated.

[8] = test system: NCCCC[C@H](N)C(=O)O; test: purified protein, by the assay type; details: other: substrate of A. terreus ODC
Experimental: as §4

`Cn1c(=NN)sc2ccccc21` [3-Methyl-2-benzo-thiazolinone hydrazone, 3-methyl-2-benzothiazolinone-hydrazone] showed an activity at 5 µg/mL [1] of 41%, an activity at 40 µg/mL [1] of 29% and an activity at 200 µg/mL [1] of 12%. The activity at 400 µg/mL [1] was 0%.
In the case of `O=C(O)c1cc(SSc2ccc([N+](=O)[O-])c(C(=O)O)c2)ccc1[N+](=O)[O-]` [5-5′-Dithiobis-(2-nitro-benzoic acid), 5,5′-dithiobis-2-nitrobenzoic acid], the “Relative Activity (%)” value ([1]; inhibitor 5 µg/mL) is reported as 39%, the “Relative Activity (%)” value ([1]; inhibitor 40 µg/mL) is reported as 27% and the “Relative Activity (%)” value ([1]; inhibitor 200 µg/mL) is reported as 14%. For the same compound, the “Relative Activity (%)” value ([1]; inhibitor 400 µg/mL) was 5.8%.
In the case of `COc1cc(/C=C/C(=O)CC(=O)/C=C/c2ccc(O)c(OC)c2)ccc1O` [Curcumin, diferuloylmethane], the IC50 ([1]; IC50, purified A. terreus ODC) is reported as ~109 nM and 109 nM, the activity at 5 µg/mL [1] is reported as 11% and the activity at 40 µg/mL [1] is reported as 0%. The activity at 200 µg/mL [1] was 0% and the activity at 400 µg/mL [1] was 0%.
For `NCCCC(N)(C(=O)O)C(F)F` (stereo not drawn) [DFMO, Difluoromethylornithine], the “Relative Activity (%)” value ([1]; inhibitor 5 µg/mL) was 8%, the “Relative Activity (%)” value ([1]; inhibitor 40 µg/mL) was 0.1% and the “Relative Activity (%)” value ([1]; inhibitor 200 µg/mL) was 0%. For the same compound, the “Relative Activity (%)” value ([1]; inhibitor 400 µg/mL) was 0% and the IC50 ([1]; purified A. terreus ODC) was 0.02 µg/mL.
In the case of `N#CS.N=C(N)N` [Guanidine thiocyanate, guanidine thiocyanate], the “Relative Activity (%)” value ([1]; inhibitor 5 µg/mL) is reported as 90%, the “Relative Activity (%)” value ([1]; inhibitor 40 µg/mL) is reported as 60% and the “Relative Activity (%)” value ([1]; inhibitor 200 µg/mL) is reported as 30%.
`NO` [Hydroxylamine, hydroxylamine] was tested, and the “Relative Activity (%)” value ([1]; inhibitor 5 µg/mL) was 45%, the “Relative Activity (%)” value ([1]; inhibitor 40 µg/mL) was 13% and the “Relative Activity (%)” value ([1]; inhibitor 200 µg/mL) was 0%. The “Relative Activity (%)” value ([1]; inhibitor 400 µg/mL) was 0%.
With `NC(=O)CI` [Iodoacetamide, iodoacetamide] the “Relative Activity (%)” value ([1]; inhibitor 5 µg/mL) was 37%, the “Relative Activity (%)” value ([1]; inhibitor 40 µg/mL) was 19% and the “Relative Activity (%)” value ([1]; inhibitor 200 µg/mL) was 10%. The “Relative Activity (%)” value ([1]; inhibitor 400 µg/mL) was 0%.
`N=C(N)NCCC[C@H](N)C(=O)O` [L-Arginine] was tested, and the “Nessler's Assay Activity” value [2] was 0.35 µmol/mg/min, the “Nessler's Assay Relative Activity” value [2] was 19% and the “Diacetyl Monoxime Assay Relative Activity” value [3] was 194%. For the same compound, the “Diacetyl Monoxime Assay Activity” value ([3]; deiminating activity) was 0.0068 µmol/mg/min, the “TNBS Assay Activity” value [4] was 0.34 µmol/mg/min and the “TNBS Assay Relative Activity” value [4] was 16.2%.
`NCCCC[C@H](N)C(=O)O` [L-Lysine] was tested, and the “Nessler's Assay Activity” value [2] was 0 µmol/mg/min, the “Nessler's Assay Relative Activity” value [2] was 0% and the “Diacetyl Monoxime Assay Activity” value ([3]; deiminating activity) was 0.0045 µmol/mg/min. For the same compound, the “Diacetyl Monoxime Assay Relative Activity” value ([3]; deiminating activity, normalized to L-ornithine) was 128%, the “TNBS Assay Activity” value [4] was 0.44 µmol/mg/min and the “TNBS Assay Relative Activity” value [4] was 20.9%.
In the case of `NCCC[C@H](N)C(=O)O` [L-Ornithine], the “Nessler's Assay Activity” value [2] is reported as 1.87 µmol/mg/min, the “Diacetyl Monoxime Assay Activity” value ([3]; deiminating activity) is reported as 0.0035 µmol/mg/min and the “TNBS Assay Activity” value [4] is reported as 2.1 µmol/mg/min. It also gave a Km [5] of 950 µM, a Vmax [5] of 4.8 µmol/mg/min and a Km ([5]; listed as L-ornithine) of 900 µM.
With `C[C@H](N)C(=O)O` [L-alanine] the “affinity of purified ODC towards the amino acid as substrate” value (“affinity” below) [6] was “no detectable affinity”.
`NC(=O)C[C@H](N)C(=O)O` [L-asparagine] was tested, and the “affinity” value [6] was “no detectable affinity”.
With `N[C@@H](CS)C(=O)O` [L-cysteine] the “affinity” value [6] was “no detectable affinity”.
`NC(=O)CC[C@H](N)C(=O)O` [L-glutamine] was tested, and the “affinity” value [6] was “no detectable affinity”.
`NCC(=O)O` [L-glycine] was tested, and the “affinity” value [6] was “no detectable affinity”.
In the case of `CSCC[C@H](N)C(=O)O` [L-methionine], the “affinity” value [6] is reported as “no detectable affinity”.
For `N[C@@H](Cc1c[nH]c2ccccc12)C(=O)O` [L-tryptophan], the “affinity” value [6] was “no detectable affinity”.
With `N[C@@H](Cc1ccc(O)cc1)C(=O)O` [L-tyrosine] the “affinity” value [6] was “no detectable affinity”.
With `CC(C)[C@H](N)C(=O)O` [L-valine] the “affinity” value [6] was “no detectable affinity”.
`CC(=O)N[C@@H]1[C@@H](O)[C@H](O)[C@@H](CO)O[C@H]1O` [N-acetylglucosamine] was tested, and the “affinity” value [6] was “no detectable affinity”.
`C#CCC(N)C(=O)O` (stereo not drawn) [Propargylgycine, propargylglycine] was tested, and the “Relative Activity (%)” value ([1]; inhibitor 5 µg/mL) was 89%, the “Relative Activity (%)” value ([1]; inhibitor 40 µg/mL) was 30% and the “Relative Activity (%)” value ([1]; inhibitor 200 µg/mL) was 17%. For the same compound, the “Relative Activity (%)” value ([1]; inhibitor 400 µg/mL) was 6% and the IC50 ([1]; purified A. terreus ODC) was 20.9 µg/mL.
With “A. terreus ODC (Aspergillus terreus NIH2624)” the Km [7] was 1.4 mM, the kcat/Km [7] was 0.0246 M⁻¹ s⁻¹ and the Km [8] was 1.34 mM. It also gave a kcat/Km [8] of 0.0283 M⁻¹ s⁻¹.

Reference: paper PMC6696095, “Purification and Characterization of Ornithine Decarboxylase from Aspergillus terreus; Kinetics of Inhibition by Various Inhibitors” (Molecules, 2019)
